Laboratory results from US20120122860A1, “SOLID FORMS OF SULFONAMIDES AND AMINO ACIDS” (Plexxikon, Inc., priority 2009, published 2012).

Columns and labels:
[1] = target: Fms (Homo sapiens, UniProt P07333); test: Kinase activity assay, Fms
[2] = target: Kit (Homo sapiens, UniProt P10721); test: Kinase activity assay, Kit
[3] = target: T1, A-Raf (Homo sapiens, UniProt P10398); test: Kinase activity assay, A-Raf
T1 sequence (P10398 1-606): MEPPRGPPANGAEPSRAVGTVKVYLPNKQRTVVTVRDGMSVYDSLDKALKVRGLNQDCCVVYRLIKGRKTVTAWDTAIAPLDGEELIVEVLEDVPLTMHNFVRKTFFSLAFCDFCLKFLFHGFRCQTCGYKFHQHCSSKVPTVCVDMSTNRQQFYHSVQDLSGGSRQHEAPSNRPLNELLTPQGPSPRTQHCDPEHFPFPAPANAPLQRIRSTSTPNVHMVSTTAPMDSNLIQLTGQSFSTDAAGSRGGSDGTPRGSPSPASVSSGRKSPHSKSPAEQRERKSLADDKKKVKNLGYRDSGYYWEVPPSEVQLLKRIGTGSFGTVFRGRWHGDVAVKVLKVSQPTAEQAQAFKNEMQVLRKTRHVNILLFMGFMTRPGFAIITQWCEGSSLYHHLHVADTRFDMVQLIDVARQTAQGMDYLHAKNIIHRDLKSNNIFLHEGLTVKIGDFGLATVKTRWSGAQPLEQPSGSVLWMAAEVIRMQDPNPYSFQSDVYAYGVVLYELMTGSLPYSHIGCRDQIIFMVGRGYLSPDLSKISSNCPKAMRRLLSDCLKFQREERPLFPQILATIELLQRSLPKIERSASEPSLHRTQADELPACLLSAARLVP

[4] = target: C-Raf (Homo sapiens, UniProt P04049); test: Kinase activity assay, C-Raf
[5] = target: B-Raf V600E (Homo sapiens, UniProt P15056, V600E); test: Kinase activity assay, B-Raf V600E; type: biochemical; details: read-out: activity toward kinase B-Raf V600E, IC50
B-Raf V600E, sequence (P15056 whole entry V600E): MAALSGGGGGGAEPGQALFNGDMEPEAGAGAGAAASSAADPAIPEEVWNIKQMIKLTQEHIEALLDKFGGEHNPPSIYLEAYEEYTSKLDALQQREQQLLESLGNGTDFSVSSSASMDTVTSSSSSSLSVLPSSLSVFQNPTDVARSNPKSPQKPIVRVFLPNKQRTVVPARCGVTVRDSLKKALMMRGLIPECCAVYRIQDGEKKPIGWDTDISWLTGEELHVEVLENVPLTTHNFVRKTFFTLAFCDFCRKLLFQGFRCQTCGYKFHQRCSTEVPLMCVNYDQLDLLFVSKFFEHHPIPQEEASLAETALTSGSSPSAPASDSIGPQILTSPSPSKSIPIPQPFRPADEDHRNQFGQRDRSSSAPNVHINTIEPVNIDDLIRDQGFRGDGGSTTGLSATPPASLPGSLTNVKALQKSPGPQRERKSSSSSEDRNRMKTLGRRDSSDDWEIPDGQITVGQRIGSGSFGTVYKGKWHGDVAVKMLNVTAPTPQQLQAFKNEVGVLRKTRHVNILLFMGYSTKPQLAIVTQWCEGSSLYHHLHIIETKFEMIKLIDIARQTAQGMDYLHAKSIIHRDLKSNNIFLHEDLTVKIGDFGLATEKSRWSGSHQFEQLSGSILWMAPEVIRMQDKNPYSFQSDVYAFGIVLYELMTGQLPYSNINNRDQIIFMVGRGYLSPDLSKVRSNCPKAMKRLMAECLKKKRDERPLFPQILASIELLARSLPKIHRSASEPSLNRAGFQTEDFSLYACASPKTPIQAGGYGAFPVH

[6] = target: Kdr (Homo sapiens, UniProt P35968); test: Kinase activity assay, Kdr
Kdr, sequence (P35968 20-1356): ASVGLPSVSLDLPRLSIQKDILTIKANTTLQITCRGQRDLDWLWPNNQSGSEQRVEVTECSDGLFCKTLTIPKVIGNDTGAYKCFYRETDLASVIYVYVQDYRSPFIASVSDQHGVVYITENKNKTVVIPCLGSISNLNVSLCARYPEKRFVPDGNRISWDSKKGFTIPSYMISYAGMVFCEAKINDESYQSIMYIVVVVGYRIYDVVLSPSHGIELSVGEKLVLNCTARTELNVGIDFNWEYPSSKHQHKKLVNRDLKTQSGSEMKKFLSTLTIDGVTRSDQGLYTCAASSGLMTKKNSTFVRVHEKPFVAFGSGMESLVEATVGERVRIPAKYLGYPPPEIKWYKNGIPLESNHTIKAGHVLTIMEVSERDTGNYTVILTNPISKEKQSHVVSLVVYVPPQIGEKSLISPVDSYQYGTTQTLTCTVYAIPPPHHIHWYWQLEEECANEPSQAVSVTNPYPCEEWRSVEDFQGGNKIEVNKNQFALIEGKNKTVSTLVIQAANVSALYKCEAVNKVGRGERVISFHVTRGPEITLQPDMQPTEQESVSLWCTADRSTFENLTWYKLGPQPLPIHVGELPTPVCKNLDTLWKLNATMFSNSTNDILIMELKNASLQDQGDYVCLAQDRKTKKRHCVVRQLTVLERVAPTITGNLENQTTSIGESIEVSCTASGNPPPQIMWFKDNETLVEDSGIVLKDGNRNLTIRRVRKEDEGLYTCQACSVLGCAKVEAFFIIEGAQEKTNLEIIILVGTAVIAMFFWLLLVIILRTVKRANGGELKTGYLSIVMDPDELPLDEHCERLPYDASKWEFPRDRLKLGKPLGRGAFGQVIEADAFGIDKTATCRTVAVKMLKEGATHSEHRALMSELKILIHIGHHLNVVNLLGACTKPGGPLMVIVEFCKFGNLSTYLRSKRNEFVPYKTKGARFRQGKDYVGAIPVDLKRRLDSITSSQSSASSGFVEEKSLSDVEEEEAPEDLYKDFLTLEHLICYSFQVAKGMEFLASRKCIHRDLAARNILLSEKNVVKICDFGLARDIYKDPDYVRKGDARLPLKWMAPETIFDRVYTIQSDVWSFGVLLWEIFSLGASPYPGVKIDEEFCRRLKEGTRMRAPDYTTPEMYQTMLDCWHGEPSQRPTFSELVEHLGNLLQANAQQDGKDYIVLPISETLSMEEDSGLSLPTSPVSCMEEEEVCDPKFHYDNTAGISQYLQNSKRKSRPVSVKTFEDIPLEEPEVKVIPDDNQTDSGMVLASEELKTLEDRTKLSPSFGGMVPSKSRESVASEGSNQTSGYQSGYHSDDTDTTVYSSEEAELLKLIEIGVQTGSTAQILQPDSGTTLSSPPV

[7] = target: MAP4K4 (Homo sapiens, UniProt O95819); test: Kinase activity assay, MAP4K4
[8] = target: B-Raf (Homo sapiens, UniProt P15056); test: Kinase activity assay, B-Raf; type: biochemical; details: read-out: activity toward kinase B-Raf, IC50
B-Raf, sequence (P15056 whole entry): as the sequence (P15056 whole entry V600E) above, with E600V counted along it

[9] = target: Src (Homo sapiens, UniProt P12931); test: Kinase activity assay, Src
Src, sequence (P12931 whole entry): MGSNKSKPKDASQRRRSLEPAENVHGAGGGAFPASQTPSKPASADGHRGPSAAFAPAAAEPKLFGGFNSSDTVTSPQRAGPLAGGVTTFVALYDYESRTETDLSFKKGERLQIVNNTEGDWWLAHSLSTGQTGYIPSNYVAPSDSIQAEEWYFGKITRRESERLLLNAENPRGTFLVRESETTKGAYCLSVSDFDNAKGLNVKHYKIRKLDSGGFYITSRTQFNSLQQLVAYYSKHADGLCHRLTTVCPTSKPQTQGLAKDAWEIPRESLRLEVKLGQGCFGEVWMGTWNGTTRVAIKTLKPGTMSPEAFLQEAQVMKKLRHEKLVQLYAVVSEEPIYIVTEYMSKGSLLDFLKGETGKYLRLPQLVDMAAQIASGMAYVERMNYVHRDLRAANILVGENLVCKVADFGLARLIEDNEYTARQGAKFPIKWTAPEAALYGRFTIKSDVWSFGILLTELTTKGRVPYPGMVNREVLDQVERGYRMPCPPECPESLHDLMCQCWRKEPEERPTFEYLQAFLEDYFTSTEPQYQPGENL

Fms, sequence (P07333 20-972): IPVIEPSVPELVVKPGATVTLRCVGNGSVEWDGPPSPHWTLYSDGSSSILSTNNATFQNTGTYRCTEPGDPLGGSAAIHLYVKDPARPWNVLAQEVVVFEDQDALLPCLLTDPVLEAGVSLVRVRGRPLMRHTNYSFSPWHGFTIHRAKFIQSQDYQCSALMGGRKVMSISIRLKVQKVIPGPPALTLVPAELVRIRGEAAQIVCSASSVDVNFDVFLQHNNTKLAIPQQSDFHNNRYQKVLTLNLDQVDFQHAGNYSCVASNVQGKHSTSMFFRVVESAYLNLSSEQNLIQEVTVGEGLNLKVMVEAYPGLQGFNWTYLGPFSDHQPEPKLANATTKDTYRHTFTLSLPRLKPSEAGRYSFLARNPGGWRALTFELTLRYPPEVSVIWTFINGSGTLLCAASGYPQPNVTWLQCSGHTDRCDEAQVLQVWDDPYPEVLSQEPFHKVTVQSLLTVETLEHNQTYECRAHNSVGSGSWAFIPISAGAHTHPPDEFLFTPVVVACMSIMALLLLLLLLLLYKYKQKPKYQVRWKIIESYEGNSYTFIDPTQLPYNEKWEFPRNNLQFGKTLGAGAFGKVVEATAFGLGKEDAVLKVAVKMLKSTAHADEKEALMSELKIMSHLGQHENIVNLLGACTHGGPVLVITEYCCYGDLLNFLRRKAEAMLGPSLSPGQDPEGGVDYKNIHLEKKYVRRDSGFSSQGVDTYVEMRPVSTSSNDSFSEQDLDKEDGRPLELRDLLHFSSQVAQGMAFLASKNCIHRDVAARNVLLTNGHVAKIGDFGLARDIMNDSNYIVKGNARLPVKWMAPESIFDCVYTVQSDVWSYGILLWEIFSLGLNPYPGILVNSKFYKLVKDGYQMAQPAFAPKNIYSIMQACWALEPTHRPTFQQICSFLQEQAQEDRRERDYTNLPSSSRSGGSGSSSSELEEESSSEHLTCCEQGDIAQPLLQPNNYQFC
Kit, sequence (P10721 26-976): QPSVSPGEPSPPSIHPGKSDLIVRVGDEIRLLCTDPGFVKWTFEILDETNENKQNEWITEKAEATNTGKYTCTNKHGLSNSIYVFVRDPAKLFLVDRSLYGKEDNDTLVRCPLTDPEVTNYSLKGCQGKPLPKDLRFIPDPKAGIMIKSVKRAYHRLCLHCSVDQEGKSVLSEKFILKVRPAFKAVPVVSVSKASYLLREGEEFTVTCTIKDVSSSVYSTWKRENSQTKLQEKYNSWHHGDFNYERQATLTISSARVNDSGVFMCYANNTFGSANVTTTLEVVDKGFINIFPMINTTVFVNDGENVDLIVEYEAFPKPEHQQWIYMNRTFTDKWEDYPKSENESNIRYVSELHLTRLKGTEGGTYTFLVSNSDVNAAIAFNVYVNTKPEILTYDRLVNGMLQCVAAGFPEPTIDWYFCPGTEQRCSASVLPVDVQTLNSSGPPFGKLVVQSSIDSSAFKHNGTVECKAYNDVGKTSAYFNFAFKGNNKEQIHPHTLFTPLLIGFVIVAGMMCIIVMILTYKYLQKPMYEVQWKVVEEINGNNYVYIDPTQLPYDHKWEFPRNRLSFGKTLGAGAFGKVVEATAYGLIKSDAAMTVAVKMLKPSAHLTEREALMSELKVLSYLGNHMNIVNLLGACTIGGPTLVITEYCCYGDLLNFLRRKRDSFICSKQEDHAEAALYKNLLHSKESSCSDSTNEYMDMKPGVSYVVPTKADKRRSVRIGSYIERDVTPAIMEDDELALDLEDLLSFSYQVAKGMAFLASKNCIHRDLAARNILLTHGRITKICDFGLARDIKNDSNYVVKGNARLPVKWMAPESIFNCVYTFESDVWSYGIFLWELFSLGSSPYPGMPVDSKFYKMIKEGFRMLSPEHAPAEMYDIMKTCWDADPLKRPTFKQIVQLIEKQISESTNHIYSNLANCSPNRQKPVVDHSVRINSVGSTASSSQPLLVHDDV

SMILES | IC50 [1] [µM] | IC50 [2] [µM] | IC50 [3] [µM] | IC50 [4] [µM] | IC50 [5] [µM] | IC50 [6] [µM] | IC50 [7] [µM] | IC50 [8] [µM] | IC50 [9] [µM]
O=C(c1c(F)ccc(NS(=O)(=O)C(F)(F)F)c1F)c1c[nH]c2ncc(-c3ccc(Cl)cc3)cc12 [P-2343, N-{3-[5-(4-Chloro-phenyl)-1H-pyrrolo[2,3-b]pyridine-3-carbonyl]-2,4-difluoro-phenyl}-C,C,C-trifluoro-methanesulfonamide] | ≤ 10 | ≤ 10 | ≤ 10 | ≤ 10 | ≤ 10 | ≤ 10 |  | ≤ 10 | ≤ 10
CC(C)CS(=O)(=O)Nc1ccc(F)c(C(=O)c2c[nH]c3ncc(Cl)cc23)c1F [P-2304, 2-Methyl-propane-1-sulfonic acid [3-(5-chloro-1H-pyrrolo[2,3-b]pyridine-3-carbonyl)-2,4-difluoro-phenyl]-amide] | ≤ 10 | ≤ 10 | ≤ 10 | ≤ 10 | ≤ 10 | ≤ 10 |  | ≤ 10 | ≤ 10
CCCS(=O)(=O)Nc1ccc(F)c(C(=O)c2c[nH]c3ncccc23)c1 [P-2437, Propane-1-sulfonic acid [4-fluoro-3-(1H-pyrrolo[2,3-b]pyridine-3-carbonyl)-phenyl]-amide] | ≤ 10 |  | ≤ 10 |  | ≤ 10 | ≤ 10 |  |  | 
O=C(c1c(F)ccc(NS(=O)(=O)N2CCOCC2)c1F)c1c[nH]c2ncc(Cl)cc12 [P-2390, Morpholine-4-sulfonic acid [3-(5-chloro-1H-pyrrolo[2,3-b]pyridine-3-carbonyl)-2,4-difluoro-phenyl]-amide] | ≤ 10 | ≤ 10 | ≤ 10 |  | ≤ 10 | ≤ 10 |  |  | ≤ 10
CCCS(=O)(=O)Nc1ccc(F)c(C(=O)c2c[nH]c3ncc(CN4CCOCC4)cc23)c1F [P-2244, Propane-1-sulfonic acid [2,4-difluoro-3-(5-morpholin-4-ylmethyl-1H-pyrrolo[2,3-b]pyridine-3-carbonyl)-phenyl]-amide] |  |  | ≤ 10 | ≤ 10 | ≤ 10 |  | ≤ 10 | ≤ 10 | 
O=C(c1c(F)ccc(NS(=O)(=O)c2ncn[nH]2)c1F)c1c[nH]c2nccc(Cl)c12 [P-2066, 2H-[1,2,4]Triazole-3-sulfonic acid [3-(4-chloro-1H-pyrrolo[2,3-b]pyridine-3-carbonyl)-2,4-difluoro-phenyl]-amide] |  |  | ≤ 10 | ≤ 10 | ≤ 10 | ≤ 10 | ≤ 10 | ≤ 10 | 
O=C(c1cc(NS(=O)(=O)c2ccc(OC(F)(F)F)cc2)ccc1F)c1c[nH]c2ncccc12 [P-2116, N-[4-Fluoro-3-(1H-pyrrolo[2,3-b]pyridine-3-carbonyl)-phenyl]-4-trifluoromethoxy-benzenesulfonamide] | ≤ 10 | ≤ 10 | ≤ 10 | ≤ 10 |  |  |  | ≤ 10 | 
Cc1cnc2[nH]cc(C(=O)c3c(F)ccc(NS(=O)(=O)CC(C)C)c3F)c2c1 [P-2305, 2-Methyl-propane-1-sulfonic acid [2,4-difluoro-3-(5-methyl-1H-pyrrolo[2,3-b]pyridine-3-carbonyl)-phenyl]-amide] |  | ≤ 10 | ≤ 10 | ≤ 10 | ≤ 10 | ≤ 10 |  | ≤ 10 | ≤ 10
COc1cnc2[nH]cc(C(=O)c3c(F)ccc(NS(=O)(=O)CC(C)C)c3F)c2c1 [P-2303, 2-Methyl-propane-1-sulfonic acid [2,4-difluoro-3-(5-methoxy-1H-pyrrolo[2,3-b]pyridine-3-carbonyl)-phenyl]-amide] |  | ≤ 10 | ≤ 10 | ≤ 10 | ≤ 10 | ≤ 10 |  | ≤ 10 | ≤ 10
COc1cnc2[nH]cc(C(=O)c3c(F)ccc(NS(C)(=O)=O)c3F)c2c1 [P-2288, N-[2,4-Difluoro-3-(5-methoxy-1H-pyrrolo[2,3-b]pyridine-3-carbonyl)-phenyl]-methanesulfonamide] |  | ≤ 10 | ≤ 10 | ≤ 10 | ≤ 10 | ≤ 10 | ≤ 10 |  | 
COc1cnc2[nH]cc(C(=O)c3c(F)ccc(NS(=O)(=O)C(C)C)c3F)c2c1 [P-2273, Propane-2-sulfonic acid [2,4-difluoro-3-(5-methoxy-1H-pyrrolo[2,3-b]pyridine-3-carbonyl)-phenyl]-amide] | ≤ 10 | ≤ 10 | ≤ 10 | ≤ 10 | ≤ 10 | ≤ 10 |  | ≤ 10 | ≤ 10
O=C(c1cc(NS(=O)(=O)c2cccc(C(F)(F)F)c2)ccc1F)c1c[nH]c2ncccc12 [P-2115, N-[4-Fluoro-3-(1H-pyrrolo[2,3-b]pyridine-3-carbonyl)-phenyl]-3-trifluoromethyl-benzenesulfonamide] | ≤ 10 | ≤ 10 | ≤ 10 |  |  | ≤ 10 |  |  | 

Further lines, results first:

IC50 [1] [µM] | IC50 [2] [µM] | IC50 [3] [µM] | IC50 [4] [µM] | IC50 [5] [µM] | IC50 [6] [µM] | IC50 [7] [µM] | IC50 [8] [µM] | IC50 [9] [µM] | SMILES
≤ 10 | ≤ 10 | ≤ 10 | ≤ 10 |  |  |  |  |  | CC(C)CS(=O)(=O)Nc1ccc(F)c(C(=O)c2c[nH]c3ncc(-c4ccc(Cl)cc4)cc23)c1F [P-2297, 2-Methyl-propane-1-sulfonic acid {3-[5-(4-chloro-phenyl)-1H-pyrrolo[2,3-b]pyridine-3-carbonyl]-2,4-difluoro-phenyl}-amide]
 |  | ≤ 10 | ≤ 10 | ≤ 10 | ≤ 10 | ≤ 10 |  |  | Cc1cnc2[nH]cc(C(=O)c3c(F)ccc(NS(=O)(=O)C4CCC4)c3F)c2c1 [P-2362, Cyclobutanesulfonic acid [2,4-difluoro-3-(5-methyl-1H-pyrrolo[2,3-b]pyridine-3-carbonyl)-phenyl]-amide]
 | ≤ 10 | ≤ 10 | ≤ 10 | ≤ 10 | ≤ 10 | ≤ 10 | ≤ 10 |  | CCCS(=O)(=O)Nc1ccc(F)c(C(=O)c2c[nH]c3ncc(C(F)(F)F)cc23)c1F [P-2182, Propane-1-sulfonic acid [2,4-difluoro-3-(5-trifluoromethyl-1H-pyrrolo[2,3-b]pyridine-3-carbonyl)-phenyl]-amide]
 |  | ≤ 10 | ≤ 10 | ≤ 10 | ≤ 10 | ≤ 10 |  |  | N#Cc1cnc2[nH]cc(C(=O)c3c(F)ccc(NS(=O)(=O)c4ncn[nH]4)c3F)c2c1 [P-2064, 2H-[1,2,4]Triazole-3-sulfonic acid [3-(5-cyano-1H-pyrrolo[2,3-b]pyridine-3-carbonyl)-2,4-difluoro-phenyl]-amide]
 | ≤ 10 | ≤ 10 | ≤ 10 | ≤ 10 | ≤ 10 | ≤ 10 |  |  | Cc1cnc2[nH]cc(C(=O)c3c(F)ccc(NS(C)(=O)=O)c3F)c2c1 [P-2289, N-[2,4-Difluoro-3-(5-methyl-1H-pyrrolo[2,3-b]pyridine-3-carbonyl)-phenyl]-methanesulfonamide]
 | ≤ 10 | ≤ 10 | ≤ 10 | ≤ 10 | ≤ 10 | ≤ 10 |  |  | CS(=O)(=O)Nc1ccc(F)c(C(=O)c2c[nH]c3ncc(Cl)cc23)c1F [P-2291, N-[3-(5-Chloro-1H-pyrrolo[2,3-b]pyridine-3-carbonyl)-2,4-difluoro-phenyl]-methanesulfonamide]
≤ 10 | ≤ 10 | ≤ 10 |  |  | ≤ 10 |  | ≤ 10 |  | O=C(c1cc(NS(=O)(=O)c2ccc(Cl)cc2)ccc1F)c1c[nH]c2ncccc12 [P-2113, 4-Chloro-N-[4-fluoro-3-(1H-pyrrolo[2,3-b]pyridine-3-carbonyl)-phenyl]-benzenesulfonamide]
 | ≤ 10 | ≤ 10 | ≤ 10 | ≤ 10 |  | ≤ 10 | ≤ 10 |  | N#Cc1cnc2[nH]cc(C(=O)c3c(F)ccc(NS(=O)(=O)C4CCCCC4)c3F)c2c1 [P-2366, Cyclohexanesulfonic acid [3-(5-cyano-1H-pyrrolo[2,3-b]pyridine-3-carbonyl)-2,4-difluoro-phenyl]-amide]
≤ 10 | ≤ 10 | ≤ 10 | ≤ 10 |  | ≤ 10 |  | ≤ 10 |  | O=C(c1cc(NS(=O)(=O)c2cccc(OC(F)(F)F)c2)ccc1F)c1c[nH]c2ncccc12 [P-2117, N-[4-Fluoro-3-(1H-pyrrolo[2,3-b]pyridine-3-carbonyl)-phenyl]-3-trifluoromethoxy-benzenesulfonamide]
